Experimental data: patent US7338957B2, “Compounds and compositions as protein kinase inhibitors” (IRM LLC, priority 2003, dated 2008)

What was measured:
wild type BCR-Abl = molecular target: T1, wild type BCR-Abl (Homo sapiens, UniProt P00519); experiment: Antiproliferative effect on Ba/F3 cells expressing wild type BCR-Abl; format: cell-based
T1 construct: expressed in transfected cells; host or cells: Ba/F3; the other entry of the earlier key: BCR (P11274, Breakpoint cluster region protein)
Experimental: (§1) 32D-p210 cells are plated into 96 well TC plates at a density of 15,000 cells per well. 50 μL of two fold serial dilutions of the test compound (Cmax is 40 μM) are added to each well (STI571 is included as a positive control). After incubating the cells for 48 hours at 37° C., 5% CO2, 15 μL of MTT (Promega) is added to each well and the cells are incubated for an additional 5 hours. The optical density at 570 nm is quantified spectrophotometrically and IC50 values, the concentration of compound required for 50% inhibition, determined from a dose response curve.
(§2) Compounds of the invention are tested for their antiproliferative effect on Ba/F3 cells expressing either wild type or the mutant forms of BCR-Abl (G250E, E255V, T315I, F317L, M351T) that confers resistance or diminished sensitivity to STI571. The antiproliferative effect of these compounds on the mutant-BCR-Abl expressing cells and on the non transformed cells were tested at 10, 3.3, 1.1 and 0.37 μM as described above (in media lacking IL3). The IC50 values of the compounds lacking toxicity on the untransformed cells were determined from the dose response curves obtained as describe above.

E255V BCR-Abl = molecular target: T2, E255V BCR-Abl (Homo sapiens, UniProt P00519, E255V); experiment: Antiproliferative effect on Ba/F3 cells expressing E255V BCR-Abl; format: cell-based; settings: Ba/F3 cells expressing E255V mutant
T2 construct: expressed in transfected cells; host or cells: Ba/F3; the other entry of the earlier key: BCR (P11274, Breakpoint cluster region protein)
Experimental: as §1, §2

M351T BCR-Abl = molecular target: T3, M351T BCR-Abl (Homo sapiens, UniProt P00519, M351T); experiment: Antiproliferative effect on Ba/F3 cells expressing M351T BCR-Abl; format: cell-based; settings: Ba/F3 cells expressing M351T mutant
T3 construct: expressed in transfected cells; host or cells: Ba/F3; the other entry of the earlier key: BCR (P11274, Breakpoint cluster region protein)
Experimental: as §1, §2

Fes = molecular target: T4, Fes (Homo sapiens, UniProt P07332); experiment: Upstate KinaseProfiler radio-enzymatic filter binding assay, Fes; format: biochemical; settings: at a concentration of 10 μM; read-out: percentage inhibition of Fes
T4 construct: purchased Upstate (KinaseProfiler panel)
Experimental: (§3) Compounds of the invention are assessed for their ability to inhibit individual members of a panel of kinases (a partial, non-limiting list of kinases includes: BMX, CSK, TrkB, FGFR3, Fes, Lck, B-RAF, C-RAF, MKK6, SAPK2α and SAPK2β). The compounds are tested in duplicates at a final concentration of 10 μM following this generic protocol. Note that the kinase buffer composition and the substrates vary for the different kinases included in the “Upstate KinaseProfiler™” panel. Kinase buffer (2.5 μL, 10×—containing MnCl2 when required), active kinase (0.001-0.01 Units; 2.5 μL), specific or Poly(Glu4-Tyr) peptide (5-500 μM or 0.01 mg/ml) in kinase buffer and kinase buffer (50 μM; 5 μL) are mixed in an eppendorf on ice. […] The assay squares are transferred to a scintillation vial, 5 ml scintillation cocktail are added and ^32P incorporation (cpm) to the peptide substrate is quantified with a Beckman scintillation counter. Percentage inhibition is calculated for each reaction.

F317L BCR-Abl = molecular target: T5, F317L BCR-Abl (Homo sapiens, UniProt P00519, F317L); experiment: Antiproliferative effect on Ba/F3 cells expressing F317L BCR-Abl; format: cell-based; settings: Ba/F3 cells expressing F317L mutant
T5 construct: expressed in transfected cells; host or cells: Ba/F3; the other entry of the earlier key: BCR (P11274, Breakpoint cluster region protein)
Experimental: as §1, §2

CSK = molecular target: T6, CSK (Homo sapiens, UniProt P41240); experiment: Upstate KinaseProfiler radio-enzymatic filter binding assay, CSK; format: biochemical; settings: at a concentration of 10 μM; read-out: percentage inhibition of CSK
T6 construct: purchased Upstate (KinaseProfiler panel)
Experimental: as §3

Bmx = molecular target: T7, Bmx (Homo sapiens, UniProt P51813); experiment: Upstate KinaseProfiler radio-enzymatic filter binding assay, Bmx; format: biochemical; settings: at a concentration of 10 μM; read-out: percentage inhibition of Bmx
T7 construct: purchased Upstate (KinaseProfiler panel)
T7 sequence (P51813 1-675): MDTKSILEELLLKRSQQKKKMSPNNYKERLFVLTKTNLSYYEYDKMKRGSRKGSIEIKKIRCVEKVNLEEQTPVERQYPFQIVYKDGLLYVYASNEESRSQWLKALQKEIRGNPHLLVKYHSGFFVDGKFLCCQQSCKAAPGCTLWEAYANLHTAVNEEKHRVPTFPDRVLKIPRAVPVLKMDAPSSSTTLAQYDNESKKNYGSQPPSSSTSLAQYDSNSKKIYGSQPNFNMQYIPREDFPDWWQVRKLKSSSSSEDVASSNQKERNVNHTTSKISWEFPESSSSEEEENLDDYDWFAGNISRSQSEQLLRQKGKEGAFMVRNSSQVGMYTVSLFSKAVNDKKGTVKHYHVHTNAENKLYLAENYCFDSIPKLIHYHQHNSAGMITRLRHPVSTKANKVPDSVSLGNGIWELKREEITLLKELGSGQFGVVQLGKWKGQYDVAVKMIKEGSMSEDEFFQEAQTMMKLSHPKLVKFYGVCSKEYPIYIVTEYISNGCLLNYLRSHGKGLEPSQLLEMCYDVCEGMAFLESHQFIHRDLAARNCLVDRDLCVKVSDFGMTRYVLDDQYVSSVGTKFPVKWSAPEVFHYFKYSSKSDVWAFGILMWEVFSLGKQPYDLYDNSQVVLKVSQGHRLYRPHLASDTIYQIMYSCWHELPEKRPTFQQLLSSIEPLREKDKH
Experimental: as §3

T315I BCR-Abl = molecular target: T8, T315I BCR-Abl (Homo sapiens, UniProt P00519, T315I); experiment: Antiproliferative effect on Ba/F3 cells expressing T315I BCR-Abl; format: cell-based; settings: Ba/F3 cells expressing T315I mutant
T8 construct: expressed in transfected cells; host or cells: Ba/F3; the other entry of the earlier key: BCR (P11274, Breakpoint cluster region protein)
T8 sequence (P00519 229-512 T315I limits assumed): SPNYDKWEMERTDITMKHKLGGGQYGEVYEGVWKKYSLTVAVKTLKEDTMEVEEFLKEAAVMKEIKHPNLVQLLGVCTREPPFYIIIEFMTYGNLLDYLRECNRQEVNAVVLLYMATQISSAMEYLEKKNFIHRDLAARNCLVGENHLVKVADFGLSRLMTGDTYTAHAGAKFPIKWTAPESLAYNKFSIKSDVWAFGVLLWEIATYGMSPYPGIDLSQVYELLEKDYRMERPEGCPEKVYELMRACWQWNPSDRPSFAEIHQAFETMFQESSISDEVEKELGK
Experimental: as §1, §2

SAPK2α = molecular target: T9, SAPK2α (Homo sapiens, UniProt Q16539); experiment: Upstate KinaseProfiler radio-enzymatic filter binding assay, SAPK2α; format: biochemical; settings: at a concentration of 10 μM; read-out: percentage inhibition of SAPK2α
T9 construct: purchased Upstate (KinaseProfiler panel)
Experimental: as §3

Lck = molecular target: T10, Lck (Homo sapiens, UniProt P06239); experiment: Upstate KinaseProfiler radio-enzymatic filter binding assay, Lck; format: biochemical; settings: at a concentration of 10 μM; read-out: percentage inhibition of Lck
T10 construct: purchased Upstate (KinaseProfiler panel)
Experimental: as §3

FGFR3 = molecular target: T11, FGFR3 (Homo sapiens, UniProt P22607); experiment: Upstate KinaseProfiler radio-enzymatic filter binding assay, FGFR3; format: biochemical; settings: at a concentration of 10 μM; read-out: percentage inhibition of FGFR3
T11 construct: purchased Upstate (KinaseProfiler panel)
Experimental: as §3

G250E BCR-Abl = molecular target: T12, G250E BCR-Abl (Homo sapiens, UniProt P00519, G250E); experiment: Antiproliferative effect on Ba/F3 cells expressing G250E BCR-Abl; format: cell-based; settings: Ba/F3 cells expressing G250E mutant
T12 construct: expressed in transfected cells; host or cells: Ba/F3; the other entry of the earlier key: BCR (P11274, Breakpoint cluster region protein)
Experimental: as §1, §2

SAPK2β = molecular target: T13, SAPK2β (Homo sapiens, UniProt Q15759); experiment: Upstate KinaseProfiler radio-enzymatic filter binding assay, SAPK2β; format: biochemical; settings: at a concentration of 10 μM; read-out: percentage inhibition of SAPK2β
T13 construct: purchased Upstate (KinaseProfiler panel)
Experimental: as §3

MKK6 = molecular target: T14, MKK6 (Homo sapiens, UniProt P52564); experiment: Upstate KinaseProfiler radio-enzymatic filter binding assay, MKK6; format: biochemical; settings: at a concentration of 10 μM; read-out: percentage inhibition of MKK6
T14 construct: purchased Upstate (KinaseProfiler panel)
T14 sequence (P52564 1-334): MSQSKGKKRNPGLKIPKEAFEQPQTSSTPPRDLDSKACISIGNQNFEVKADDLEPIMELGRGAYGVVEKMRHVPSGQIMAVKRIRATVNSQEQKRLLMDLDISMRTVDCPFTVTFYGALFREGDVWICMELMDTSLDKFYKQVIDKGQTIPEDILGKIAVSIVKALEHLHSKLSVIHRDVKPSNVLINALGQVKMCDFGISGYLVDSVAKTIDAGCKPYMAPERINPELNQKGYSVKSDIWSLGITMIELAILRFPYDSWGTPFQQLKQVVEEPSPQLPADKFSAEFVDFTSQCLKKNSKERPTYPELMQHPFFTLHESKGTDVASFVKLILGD
Experimental: as §3

TrkB = molecular target: T15, TrkB (Homo sapiens, UniProt Q16620); experiment: Upstate KinaseProfiler radio-enzymatic filter binding assay, TrkB; format: biochemical; settings: at a concentration of 10 μM; read-out: percentage inhibition of TrkB
T15 construct: purchased Upstate (KinaseProfiler panel)
Experimental: as §3

c-Raf = molecular target: T16, c-Raf (Homo sapiens, UniProt P04049); experiment: Upstate KinaseProfiler radio-enzymatic filter binding assay, c-Raf; format: biochemical; settings: at a concentration of 10 μM; read-out: percentage inhibition of c-Raf
T16 construct: purchased Upstate (KinaseProfiler panel)
Experimental: as §3

B-RAF = B-RAF (Homo sapiens, UniProt P15056); experiment: B-RAF kinase inhibition assay (IκBα substrate); format: biochemical; settings: 20 μM ATP
Experimental: Compounds of the invention are tested for their ability to inhibit the activity of B-RAF. The assay is carried out in 384-well MaxiSorp plates (NUNC) with black walls and clear bottom. The substrate, IκBα is diluted in DPBS (1:750) and 15 μL is added to each well. The plates are incubated at 4° C. overnight and washed 3 times with TBST (25 mM Tris, pH 8.0, 150 mM NaCl and 0.05% Tween-20) using the EMBLA plate washer. Plates are blocked by Superblock (15 μL/well) for 3 hours at room temperature, washed 3 times with TBST and pat-dried. Assay buffer containing 20 μM ATP (10 μL) is added to each well followed by 100 nL or 500 nL of compound. B-RAF is diluted in the assay buffer (1 μL into 25 μl) and 10 μL of diluted B-RAF is added to each well (0.4 μg/well). The plates are incubated at room temperature for 2.5 hours. The kinase reaction is stopped by washing the plates 6 times with TBST. Phosph-IκBα (Ser32/36) antibody is diluted in Superblock (1:10,000) and 15 μL is added to each well. The plates are incubated at 4° C. overnight and washed 6 times with TBST. AP-conjugated goat-anti-mouse IgG is diluted in Superblock (1:1,500) and 15 μL is added to each well. Plates are incubated at room temperature for 1 hour and washed 6 times with TBST. […] Plates are read on Acquest or Analyst GT using a Fluorescence Intensity Nanxin BBT anion (505 dichroic mirror).

T10 sequence (P06239 whole entry): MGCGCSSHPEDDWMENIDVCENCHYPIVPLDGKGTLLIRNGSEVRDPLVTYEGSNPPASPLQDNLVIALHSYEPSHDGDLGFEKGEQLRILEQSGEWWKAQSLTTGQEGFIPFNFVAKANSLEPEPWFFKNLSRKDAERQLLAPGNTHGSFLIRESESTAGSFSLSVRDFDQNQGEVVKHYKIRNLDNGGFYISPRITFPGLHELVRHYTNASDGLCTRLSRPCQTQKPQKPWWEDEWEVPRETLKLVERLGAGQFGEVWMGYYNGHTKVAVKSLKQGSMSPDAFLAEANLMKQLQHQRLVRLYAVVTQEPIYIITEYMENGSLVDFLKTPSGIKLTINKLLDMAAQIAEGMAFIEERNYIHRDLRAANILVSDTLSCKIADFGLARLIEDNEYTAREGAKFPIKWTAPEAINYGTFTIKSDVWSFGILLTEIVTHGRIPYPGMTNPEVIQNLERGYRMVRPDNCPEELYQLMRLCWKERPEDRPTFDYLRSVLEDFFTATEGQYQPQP
T15 sequence (Q16620 32-822): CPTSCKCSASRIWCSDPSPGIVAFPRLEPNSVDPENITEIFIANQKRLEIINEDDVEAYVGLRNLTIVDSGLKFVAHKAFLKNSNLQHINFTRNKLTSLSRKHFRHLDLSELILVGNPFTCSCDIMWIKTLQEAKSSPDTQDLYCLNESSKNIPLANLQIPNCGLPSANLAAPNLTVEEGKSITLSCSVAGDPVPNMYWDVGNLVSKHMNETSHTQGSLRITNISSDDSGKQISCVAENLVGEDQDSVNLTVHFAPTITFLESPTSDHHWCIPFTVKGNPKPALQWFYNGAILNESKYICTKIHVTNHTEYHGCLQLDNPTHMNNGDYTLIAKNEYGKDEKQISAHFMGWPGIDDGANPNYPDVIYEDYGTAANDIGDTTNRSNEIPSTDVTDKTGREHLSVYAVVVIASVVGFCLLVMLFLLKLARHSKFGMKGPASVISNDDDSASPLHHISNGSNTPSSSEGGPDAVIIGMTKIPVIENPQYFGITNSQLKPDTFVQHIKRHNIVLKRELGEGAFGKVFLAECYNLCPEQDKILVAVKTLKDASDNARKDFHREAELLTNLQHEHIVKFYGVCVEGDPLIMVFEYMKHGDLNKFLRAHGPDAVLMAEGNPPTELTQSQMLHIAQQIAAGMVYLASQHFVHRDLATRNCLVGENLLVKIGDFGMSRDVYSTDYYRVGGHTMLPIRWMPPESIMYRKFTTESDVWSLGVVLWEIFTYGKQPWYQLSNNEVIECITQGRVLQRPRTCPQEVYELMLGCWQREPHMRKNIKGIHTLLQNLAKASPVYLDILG
T16 sequence (P04049 whole entry): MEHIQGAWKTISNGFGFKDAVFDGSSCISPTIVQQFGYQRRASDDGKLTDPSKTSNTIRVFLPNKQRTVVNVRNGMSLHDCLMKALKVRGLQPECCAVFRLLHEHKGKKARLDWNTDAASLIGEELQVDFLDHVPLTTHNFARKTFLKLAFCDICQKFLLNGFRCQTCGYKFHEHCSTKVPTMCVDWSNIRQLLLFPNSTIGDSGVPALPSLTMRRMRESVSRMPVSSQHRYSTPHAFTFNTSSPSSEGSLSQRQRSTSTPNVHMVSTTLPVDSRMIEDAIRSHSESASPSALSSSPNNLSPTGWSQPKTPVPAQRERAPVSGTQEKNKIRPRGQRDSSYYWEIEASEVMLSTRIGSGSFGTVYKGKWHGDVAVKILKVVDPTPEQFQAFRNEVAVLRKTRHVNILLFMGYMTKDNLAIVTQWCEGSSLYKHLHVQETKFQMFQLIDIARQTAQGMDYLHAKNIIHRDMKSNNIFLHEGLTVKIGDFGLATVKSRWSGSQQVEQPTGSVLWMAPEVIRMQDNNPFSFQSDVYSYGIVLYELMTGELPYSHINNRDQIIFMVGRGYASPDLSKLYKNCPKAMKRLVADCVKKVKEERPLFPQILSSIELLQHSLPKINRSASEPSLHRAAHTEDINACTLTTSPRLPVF
T4 sequence (P07332 whole entry): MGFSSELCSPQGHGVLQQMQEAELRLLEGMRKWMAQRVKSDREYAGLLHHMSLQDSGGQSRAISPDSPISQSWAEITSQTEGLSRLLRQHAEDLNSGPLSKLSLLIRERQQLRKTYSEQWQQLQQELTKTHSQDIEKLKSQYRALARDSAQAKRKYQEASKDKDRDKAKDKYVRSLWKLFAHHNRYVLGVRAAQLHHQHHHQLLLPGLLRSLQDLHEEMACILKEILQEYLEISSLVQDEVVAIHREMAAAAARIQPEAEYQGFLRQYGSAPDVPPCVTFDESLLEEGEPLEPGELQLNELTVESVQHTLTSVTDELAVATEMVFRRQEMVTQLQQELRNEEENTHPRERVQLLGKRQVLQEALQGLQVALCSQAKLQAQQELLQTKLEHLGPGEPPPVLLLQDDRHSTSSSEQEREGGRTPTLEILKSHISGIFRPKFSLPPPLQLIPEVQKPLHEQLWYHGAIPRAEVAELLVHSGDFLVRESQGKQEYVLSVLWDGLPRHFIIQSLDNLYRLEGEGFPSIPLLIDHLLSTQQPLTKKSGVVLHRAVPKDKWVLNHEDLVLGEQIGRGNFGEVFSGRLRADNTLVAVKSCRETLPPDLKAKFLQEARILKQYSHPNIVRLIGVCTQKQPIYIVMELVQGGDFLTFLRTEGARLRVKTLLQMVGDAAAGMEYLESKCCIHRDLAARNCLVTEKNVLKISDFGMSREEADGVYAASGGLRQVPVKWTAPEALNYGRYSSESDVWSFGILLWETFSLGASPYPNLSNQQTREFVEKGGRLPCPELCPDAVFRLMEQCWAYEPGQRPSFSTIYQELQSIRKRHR
T6 sequence (P41240 whole entry): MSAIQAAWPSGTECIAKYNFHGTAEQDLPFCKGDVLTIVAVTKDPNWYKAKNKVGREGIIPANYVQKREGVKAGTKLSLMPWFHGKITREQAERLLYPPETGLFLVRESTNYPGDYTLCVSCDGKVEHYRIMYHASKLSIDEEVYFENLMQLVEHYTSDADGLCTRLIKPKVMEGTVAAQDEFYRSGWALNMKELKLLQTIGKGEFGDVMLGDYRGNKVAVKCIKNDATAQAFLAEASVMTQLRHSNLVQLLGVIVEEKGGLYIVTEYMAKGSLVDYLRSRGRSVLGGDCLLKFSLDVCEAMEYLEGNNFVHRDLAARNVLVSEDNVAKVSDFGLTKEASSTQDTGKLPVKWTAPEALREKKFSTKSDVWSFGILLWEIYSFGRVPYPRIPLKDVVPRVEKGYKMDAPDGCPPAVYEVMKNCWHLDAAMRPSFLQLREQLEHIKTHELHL
T13 sequence (Q15759 whole entry): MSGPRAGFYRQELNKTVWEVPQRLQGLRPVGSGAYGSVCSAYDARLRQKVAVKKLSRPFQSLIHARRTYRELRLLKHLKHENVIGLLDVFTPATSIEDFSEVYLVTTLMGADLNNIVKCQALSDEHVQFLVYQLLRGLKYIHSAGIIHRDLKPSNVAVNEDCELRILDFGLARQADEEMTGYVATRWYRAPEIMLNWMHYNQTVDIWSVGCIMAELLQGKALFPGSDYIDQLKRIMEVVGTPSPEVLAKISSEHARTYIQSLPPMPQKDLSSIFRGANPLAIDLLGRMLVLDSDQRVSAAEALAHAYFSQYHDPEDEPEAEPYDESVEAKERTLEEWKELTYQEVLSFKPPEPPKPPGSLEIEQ
Sequence of B-RAF (P15056 whole entry, species assumed): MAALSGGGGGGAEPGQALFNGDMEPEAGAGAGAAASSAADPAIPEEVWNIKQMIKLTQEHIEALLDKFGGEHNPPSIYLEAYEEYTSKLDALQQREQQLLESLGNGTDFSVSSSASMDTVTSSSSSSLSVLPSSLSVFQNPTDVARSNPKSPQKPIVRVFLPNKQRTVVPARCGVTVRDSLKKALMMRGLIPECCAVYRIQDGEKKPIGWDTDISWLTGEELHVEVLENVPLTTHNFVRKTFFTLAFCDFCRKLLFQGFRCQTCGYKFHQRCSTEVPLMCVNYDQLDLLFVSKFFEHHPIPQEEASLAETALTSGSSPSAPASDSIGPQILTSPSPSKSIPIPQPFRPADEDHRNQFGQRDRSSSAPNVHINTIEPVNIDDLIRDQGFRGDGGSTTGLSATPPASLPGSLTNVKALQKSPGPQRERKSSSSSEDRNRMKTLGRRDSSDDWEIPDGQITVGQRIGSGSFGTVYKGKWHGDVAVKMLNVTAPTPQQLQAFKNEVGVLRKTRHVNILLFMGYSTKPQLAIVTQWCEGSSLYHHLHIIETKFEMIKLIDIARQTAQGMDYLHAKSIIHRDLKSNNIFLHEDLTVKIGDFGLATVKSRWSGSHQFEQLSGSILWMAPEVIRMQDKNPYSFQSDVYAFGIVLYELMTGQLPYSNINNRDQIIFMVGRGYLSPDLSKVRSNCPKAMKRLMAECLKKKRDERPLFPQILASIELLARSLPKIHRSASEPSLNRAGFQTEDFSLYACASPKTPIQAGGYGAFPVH
T9 sequence (Q16539 whole entry): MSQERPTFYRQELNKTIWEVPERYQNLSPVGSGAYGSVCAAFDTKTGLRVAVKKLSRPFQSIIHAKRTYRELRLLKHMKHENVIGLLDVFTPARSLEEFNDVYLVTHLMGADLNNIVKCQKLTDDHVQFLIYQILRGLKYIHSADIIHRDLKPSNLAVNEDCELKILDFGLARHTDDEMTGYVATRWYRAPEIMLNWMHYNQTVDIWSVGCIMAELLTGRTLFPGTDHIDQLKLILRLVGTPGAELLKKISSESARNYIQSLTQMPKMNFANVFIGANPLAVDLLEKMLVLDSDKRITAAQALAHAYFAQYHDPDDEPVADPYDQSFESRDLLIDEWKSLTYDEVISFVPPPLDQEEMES

| SMILES | IC50 (wild type BCR-Abl) [µM] | IC50 (E255V BCR-Abl) [µM] | IC50 (M351T BCR-Abl) [µM] | inhibition at 10 µM (Fes) [%] | IC50 (F317L BCR-Abl) [µM] | inhibition at 10 µM (CSK) [%] | inhibition at 10 µM (Bmx) [%] | IC50 (T315I BCR-Abl) [µM] | inhibition at 10 µM (SAPK2α) [%] | inhibition at 10 µM (Lck) [%] | inhibition at 10 µM (FGFR3) [%] | IC50 (G250E BCR-Abl) [µM] | inhibition at 10 µM (SAPK2β) [%] | inhibition at 10 µM (MKK6) [%] | inhibition at 10 µM (TrkB) [%] | inhibition at 10 µM (c-Raf) [%] | IC50 (B-RAF) [µM] |
| --- | --- | --- | --- | --- | --- | --- | --- | --- | --- | --- | --- | --- | --- | --- | --- | --- | --- |
| Cc1cn(-c2cc(C(=O)Nc3ccc(C)c(NC(=O)n4ccc5c(Nc6cccc(C(N)=O)c6)ncnc54)c3)cc(C(F)(F)F)c2)cn1 [Example 7, 4-(3-Carbamoyl-phenylamino)-pyrrolo[2,3-d]pyrimidine-7-carboxylic acid {2-methyl-5-[3-(4-methyl-imidazol-1-yl)-5-trifluoromethyl-benzoylamino]-phenyl}-amide] | 0.005 | 0.031 | 0.005 | 98 | 0.009 | 100 | 100 | 0.115 | 100 | 96 | 95 | 0.047 | 100 | 98 | 98 | 99 | – |
| Cc1cn(-c2cc(C(=O)Nc3ccc(C)c(NC(=O)n4ccc5c(Nc6cccc(N(C)C)c6)ncnc54)c3)cc(C(F)(F)F)c2)cn1 [Example 3, 4-(3-Dimethylamino-phenylamino)-pyrrolo[2,3-d]pyrimidine-7-carboxylic acid {2-methyl-5-[3-(4-methyl-imidazol-1-yl)-5-trifluoromethyl-benzoylamino]-phenyl}-amide] | 0.022 | 0.22 | 0.029 | 82 | 0.05 | 90 | 100 | 0.37 | – | 95 | – | 0.17 | 95 | – | 100 | 83 | 0.032 |
